Reference: PMC10774165, “Correlating sugar transporter expression and activities to identify transporters for an orphan sugar substrate” (Applied Microbiology and Biotechnology, 2024)

Key:
Format in all cases: cell-based
[1] = target: T1, NCU00809 (Neurospora crassa, UniProt Q7SEC5); experiment: growth of transporter-expressing yeast on the sugar; details: S. cerevisiae EBY.VW4000
T1 construct: full-length cDNA in p426H7, expressed in S. cerevisiae EBY.VW4000 with K. lactis LAC4

[2] = target: T2, NCU08052 (Neurospora crassa, UniProt Q7SGN1); experiment: glycerol uptake by N. crassa wild type versus deletion mutant; details: after induction in arabinose, 20 min
T2 construct: native protein in N. crassa mycelium, wild type versus deletion mutant

[3] = target: T1, NCU00809; experiment: growth of transporter-expressing yeast on the sugar as sole carbon source; details: 0.2% or 2% lactose, 30 °C, 3 days, coexpressed K. lactis Lac4; uptake also reduced in N. crassa deletion mutant
[4] = target: T3, CDT-1 (Neurospora crassa, UniProt Q7SCU1); experiment: as above; details: 0.2% or 2% lactose, 30 °C, 3 days, coexpressed K. lactis Lac4; uptake also reduced in N. crassa deletion mutant
T3 construct: full-length cDNA in p426H7, expressed in S. cerevisiae EBY.VW4000 (with K. lactis LAC4 for lactose)

[5] = target: T4, CDT-2 (Neurospora crassa, UniProt Q7SD12); experiment: as above; details: 0.2% or 2% lactose, 30 °C, 3 days, coexpressed K. lactis Lac4; uptake also reduced in N. crassa deletion mutant
T4 construct: full-length cDNA in p426H7, expressed in S. cerevisiae EBY.VW4000 with K. lactis LAC4
T4 sequence (Q7SD12 entry or part of it): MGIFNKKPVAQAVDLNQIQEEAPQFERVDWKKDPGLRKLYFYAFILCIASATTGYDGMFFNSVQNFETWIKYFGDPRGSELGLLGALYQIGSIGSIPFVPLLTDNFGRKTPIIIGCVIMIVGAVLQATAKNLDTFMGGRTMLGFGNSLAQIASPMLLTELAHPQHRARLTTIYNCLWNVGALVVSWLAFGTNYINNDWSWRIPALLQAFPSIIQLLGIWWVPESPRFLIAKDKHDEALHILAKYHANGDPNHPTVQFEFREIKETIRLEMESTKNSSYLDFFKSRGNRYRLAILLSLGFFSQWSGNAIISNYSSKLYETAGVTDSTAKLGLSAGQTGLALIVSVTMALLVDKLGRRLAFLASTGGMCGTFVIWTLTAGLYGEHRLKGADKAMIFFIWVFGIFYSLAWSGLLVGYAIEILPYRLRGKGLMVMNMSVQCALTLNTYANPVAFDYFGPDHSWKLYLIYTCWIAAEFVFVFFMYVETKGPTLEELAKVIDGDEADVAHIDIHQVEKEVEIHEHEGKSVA

T1 sequence (Q7SEC5 1-547): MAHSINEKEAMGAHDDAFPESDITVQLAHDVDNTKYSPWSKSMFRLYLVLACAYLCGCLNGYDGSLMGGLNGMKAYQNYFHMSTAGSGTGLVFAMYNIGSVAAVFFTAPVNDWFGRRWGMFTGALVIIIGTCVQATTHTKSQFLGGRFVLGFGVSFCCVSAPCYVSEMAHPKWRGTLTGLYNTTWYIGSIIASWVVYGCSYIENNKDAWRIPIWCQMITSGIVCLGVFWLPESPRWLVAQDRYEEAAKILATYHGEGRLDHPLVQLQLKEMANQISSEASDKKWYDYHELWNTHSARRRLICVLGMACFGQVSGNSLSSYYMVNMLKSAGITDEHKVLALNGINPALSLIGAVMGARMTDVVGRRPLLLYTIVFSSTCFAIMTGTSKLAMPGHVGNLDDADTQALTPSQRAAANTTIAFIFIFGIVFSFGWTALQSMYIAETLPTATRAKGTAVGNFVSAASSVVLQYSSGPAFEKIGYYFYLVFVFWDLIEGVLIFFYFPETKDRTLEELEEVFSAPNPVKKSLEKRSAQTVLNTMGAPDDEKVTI
T2 sequence (Q7SGN1 entry or part of it): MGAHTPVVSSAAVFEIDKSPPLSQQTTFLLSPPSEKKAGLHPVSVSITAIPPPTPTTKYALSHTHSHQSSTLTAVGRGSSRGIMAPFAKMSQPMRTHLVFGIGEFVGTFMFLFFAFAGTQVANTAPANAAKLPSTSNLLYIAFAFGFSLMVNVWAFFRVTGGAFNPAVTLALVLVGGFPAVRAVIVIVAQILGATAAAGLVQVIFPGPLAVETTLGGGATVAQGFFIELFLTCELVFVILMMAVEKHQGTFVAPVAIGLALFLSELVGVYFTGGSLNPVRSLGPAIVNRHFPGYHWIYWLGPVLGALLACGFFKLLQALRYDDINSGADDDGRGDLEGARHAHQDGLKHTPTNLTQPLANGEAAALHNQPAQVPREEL
T3 sequence (Q7SCU1 entry or part of it): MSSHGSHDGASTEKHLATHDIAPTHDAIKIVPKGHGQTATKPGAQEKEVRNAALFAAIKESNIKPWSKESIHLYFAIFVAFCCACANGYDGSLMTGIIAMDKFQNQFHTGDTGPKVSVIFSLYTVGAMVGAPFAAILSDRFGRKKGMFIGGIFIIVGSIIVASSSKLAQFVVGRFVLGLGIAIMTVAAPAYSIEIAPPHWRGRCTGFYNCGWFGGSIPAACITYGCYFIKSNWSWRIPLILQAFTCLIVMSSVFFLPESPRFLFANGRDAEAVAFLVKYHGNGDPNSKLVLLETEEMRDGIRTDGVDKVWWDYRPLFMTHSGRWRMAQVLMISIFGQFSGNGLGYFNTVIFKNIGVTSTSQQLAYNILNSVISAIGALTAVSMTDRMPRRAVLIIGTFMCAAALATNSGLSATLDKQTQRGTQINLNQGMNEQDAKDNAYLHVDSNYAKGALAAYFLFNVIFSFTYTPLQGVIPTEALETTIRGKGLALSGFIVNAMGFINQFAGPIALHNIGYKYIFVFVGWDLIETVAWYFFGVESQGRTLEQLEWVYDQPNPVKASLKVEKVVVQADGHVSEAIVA

## OC[C@H]1OC(O)[C@H](O)[C@@H](O)[C@H]1O (stereo partly drawn) [D-galactose]
[1]
  growth of transporter-expressing yeast on the sugar: NCU00809 was found to display transport activity for D-galactose

## OCC(O)CO [glycerol]
[2]
  glycerol uptake by N. crassa wild type versus deletion mutant: a significantly reduced uptake rate in the respective deletion mutant

## OC[C@H]1O[C@@H](O[C@H]2[C@H](O)[C@@H](O)C(O)O[C@@H]2CO)[C@H](O)[C@@H](O)[C@H]1O (stereo partly drawn) [lactose, β-D-galactopyranosyl-(1 → 4)-D-glucose]
[3]
  growth of transporter-expressing yeast on the sugar as sole carbon source: demonstrating that they are plasma membrane permeases that can transport lactose
[4]
  growth of transporter-expressing yeast on the sugar as sole carbon source: demonstrating that they are plasma membrane permeases that can transport lactose
[5]
  growth of transporter-expressing yeast on the sugar as sole carbon source: demonstrating that they are plasma membrane permeases that can transport lactose
